Source: patent US10131744B2, “Antimicrobial polyamide compositions and mastitis treatment” (priority 2013, dated 2018)
≈ marks a conversion by molar mass, not a printed value. Read-outs that look alike come from different tables or passages of the source.

Key:
[1] = system: E. faecalis (Str-15) ATCC 29212; conditions: cited from earlier work
[2] = system: Streptococcus uberis; test: MIC in broth against Streptococcus uberis; format: cell-based
Description: (§1) The antimicrobial efficacy of twenty-five antimicrobial polymers (and Erythromycin) was evaluated using an MIC assay. For each study, a doubling dilution concentration of each antimicrobial polymer was prepared at 2× the final concentration range (0.12 to 16 μg/mL), and 100 μL of the API-null formulation was dispensed into the negative control wells. Overall, the antimicrobial polymer-containing compositions performed comparably well, or better, against the pathogens, as compared to Erythromycin (ERY).

[3] = system: Moraxella bovis; test: MIC in broth against Moraxella bovis; format: cell-based
Description: as §1

[4] = system: Staphylococcus pseudintermedius (including MRSP); test: MIC in broth against Staphylococcus pseudintermedius (including MRSP); format: cell-based; parameters: unit not given beside the values
Description: as §1

[5] = system: Streptococcus canis; test: MIC in broth against Streptococcus canis; format: cell-based; parameters: unit not given beside the values
Description: as §1

[6] = system: Histophilus somni; test: MIC in broth against Histophilus somni; format: cell-based
Description: as §1

[7] = system: E. faecalis (Str-15) ATCC 29212; test: MIC in broth against E. faecalis; format: cell-based; conditions: Enterococcus faecalis, ATCC29212
Description: The antimicrobial efficacy of twenty-five antimicrobial polymers (and Erythromycin) was evaluated using an MIC assay. […] Overall, the antimicrobial polymer-containing compositions performed comparably well, or better, against the pathogens, as compared to Erythromycin (ERY).

[8] = system: Streptococcus dysgalactiae; test: MIC in broth against Streptococcus dysgalactiae; format: cell-based
Description: as §1

[9] = system: Actinobacillus pleuropneumoniae; test: MIC in broth against Actinobacillus pleuropneumoniae; format: cell-based
Description: as §1

[10] = system: Pseudomonas aeruginosa; test: MIC in broth against Pseudomonas aeruginosa; format: cell-based; parameters: unit not given beside the values
Description: as §1

[11] = system: Proteus mirabilis; test: MIC in broth against Proteus mirabilis; format: cell-based
Description: as §1

[12] = system: Coagulase negative Staphylococcus species; test: MIC in broth against coagulase negative Staphylococcus species; format: cell-based
Description: as §1

[13] = system: Enterobacter species; test: MIC in broth against Enterobacter species; format: cell-based
Description: as §1

[14] = system: Staphylococcus aureus (including MRSA); conditions: S. aureus (Sta-3) ATCC 29213; cited from earlier work
[15] = system: Mycoplasma bovis; test: organism not typed; format: cell-based

In the case of `CC[C@H]1OC(=O)[C@H](C)[C@@H](O[C@H]2C[C@@](C)(OC)[C@@H](O)[C@H](C)O2)[C@H](C)[C@@H](O[C@@H]2O[C@H](C)C[C@H](N(C)C)[C@H]2O)[C@](C)(O)C[C@@H](C)C(=O)[C@H](C)[C@@H](O)[C@]1(C)O` [Ery, Erythromycin], the “Known range (MIC)” value [1] is given as 1 to 4 µg/mL, the MIC ([2]; isolate # 218) is given as 0.06 µg/mL (≈ 0.0818 µM) and the MIC ([2]; isolate # 219) is given as 0.5 µg/mL (≈ 0.681 µM). For the same compound, the MIC ([2]; isolate # 220) was 0.06 µg/mL (≈ 0.0818 µM), the MIC ([2]; isolate # 221) was 1 µg/mL (≈ 1.36 µM) and the MIC ([2]; isolate # 222) was 0.06 µg/mL (≈ 0.0818 µM). It also gave an MIC ([2]; isolate # 223) of 0.06 µg/mL (≈ 0.0818 µM), an MIC ([2]; isolate # 224) of 0.06 µg/mL (≈ 0.0818 µM) and an MIC ([2]; isolate # 225) of 2 µg/mL (≈ 2.73 µM). The MIC ([2]; isolate # 226) was 0.06 µg/mL (≈ 0.0818 µM), the MIC ([2]; isolate # 227) was 2 µg/mL (≈ 2.73 µM) and the MIC ([3]; isolate # 88) was 0.3 µg/mL (≈ 0.409 µM). The MIC ([3]; isolate # 89) was 0.5 µg/mL (≈ 0.681 µM), the MIC ([3]; isolate # 90) was 0.5 µg/mL (≈ 0.681 µM) and the MIC ([3]; isolate # 91) was 1 µg/mL (≈ 1.36 µM). It also gave an MIC ([3]; isolate # 92) of 0.5 µg/mL (≈ 0.681 µM), an MIC ([3]; isolate # 93) of 0.3 µg/mL (≈ 0.409 µM) and an MIC ([3]; isolate # 94) of 0.5 µg/mL (≈ 0.681 µM). For the same compound, the MIC ([3]; isolate # 95) was 0.5 µg/mL (≈ 0.681 µM), the MIC ([3]; isolate # 96) was 0.5 µg/mL (≈ 0.681 µM) and the MIC ([3]; isolate # 97) was 0.5 µg/mL (≈ 0.681 µM). For the same compound, the “MIC against Staphylococcus pseudintermedius (+ MSRP)” value (from here on “MIC … (+ MSRP)”) ([4]; isolate # 128) was 0.25, the “MIC … (+ MSRP)” value ([4]; isolate # 129) was 0.25 and the “MIC … (+ MSRP)” value ([4]; isolate # 130) was 0.25. The “MIC … (+ MSRP)” value ([4]; isolate # 131) was 0.25, the “MIC … (+ MSRP)” value ([4]; isolate # 132) was 0.25 and the “MIC … (+ MSRP)” value ([4]; isolate # 133) was 0.25. For the same compound, the “MIC … (+ MSRP)” value ([4]; isolate # 134) was 0.25, the “MIC … (+ MSRP)” value ([4]; isolate # 135) was 0.12 and the “MIC … (+ MSRP)” value ([4]; isolate # 136) was 0.25. For the same compound, the “MIC … (+ MSRP)” value ([4]; isolate # 137) was 0.12, the “MIC … (+ MSRP)” value ([4]; isolate # 138) was over 8 and the “MIC … (+ MSRP)” value ([4]; isolate # 139) was 0.25. The “MIC … (+ MSRP)” value ([4]; isolate # 140) was over 8, the “MIC … (+ MSRP)” value ([4]; isolate # 141) was over 8 and the “MIC … (+ MSRP)” value ([4]; isolate # 142) was over 8. The “MIC … (+ MSRP)” value ([4]; isolate # 143) was over 8, the “MIC … (+ MSRP)” value ([4]; isolate # 144) was over 8 and the “MIC … (+ MSRP)” value ([4]; isolate # 145) was over 8. For the same compound, the “MIC … (+ MSRP)” value ([4]; isolate # 146) was over 8, the “MIC … (+ MSRP)” value ([4]; isolate # 147) was over 8 and the “MIC against Streptococcus canis” value ([5]; isolate # 198) was 0.06. For the same compound, the “MIC against Streptococcus canis” value ([5]; isolate # 199) was 0.06, the “MIC against Streptococcus canis” value ([5]; isolate # 200) was 0.12 and the “MIC against Streptococcus canis” value ([5]; isolate # 201) was 0.06. The “MIC against Streptococcus canis” value ([5]; isolate # 202) was 0.06, the “MIC against Streptococcus canis” value ([5]; isolate # 203) was 0.06 and the “MIC against Streptococcus canis” value ([5]; isolate # 204) was 0.06. The “MIC against Streptococcus canis” value ([5]; isolate # 205) was 0.06, the “MIC against Streptococcus canis” value ([5]; isolate # 206) was 0.06 and the “MIC against Streptococcus canis” value ([5]; isolate # 207) was 0.06. The MIC ([6]; H. somni (H-15) ATTC 700025, read-out: MIC) was 1 µg/mL (≈ 1.36 µM), the MIC ([6]; isolates # 238-240, 243, 246 (BRD), read-out: MIC against Histophilus somni) was over 8 µg/mL and the MIC ([6]; isolates # 241, 247 (BRD), read-out: MIC against Histophilus somni) was 0.5 µg/mL (≈ 0.681 µM). The MIC ([6]; isolates # 242, 244, 245 (BRD), read-out: MIC against Histophilus somni) was 1 µg/mL (≈ 1.36 µM), the MIC [7] was 2 µg/mL (≈ 2.73 µM) and the MIC ([8]; isolate # 208) was 0.06 µg/mL (≈ 0.0818 µM). It also gave an MIC ([8]; isolate # 209) of 0.06 µg/mL (≈ 0.0818 µM), an MIC ([8]; isolate # 210) of 0.12 µg/mL (≈ 0.164 µM) and an MIC ([8]; isolate # 211) of 0.06 µg/mL (≈ 0.0818 µM). The MIC ([8]; isolate # 212) was 0.12 µg/mL (≈ 0.164 µM), the MIC ([8]; isolate # 213) was 0.12 µg/mL (≈ 0.164 µM) and the MIC ([8]; isolate # 214) was 0.06 µg/mL (≈ 0.0818 µM). For the same compound, the MIC ([8]; isolate # 215) was 0.12 µg/mL (≈ 0.164 µM), the MIC ([8]; isolate # 216) was 0.06 µg/mL (≈ 0.0818 µM) and the MIC ([8]; isolate # 217) was 0.12 µg/mL (≈ 0.164 µM). It also gave an MIC ([9]; A. pleuro. (AC-1) ATTC 27090, read-out: MIC) of 8 µg/mL (≈ 10.9 µM), an MIC ([9]; isolate # 237 (porcine lung, SRD), read-out: MIC against Actinobacillus pleuropneumoniae) of 2 µg/mL (≈ 2.73 µM) and an MIC ([9]; isolates # 228-231, 235 (porcine lung, SRD), read-out: MIC against Actinobacillus pleuropneumoniae) of 4 µg/mL (≈ 5.45 µM). The MIC ([9]; isolates # 232-236 (porcine lung, SRD), read-out: MIC against Actinobacillus pleuropneumoniae) was 8 µg/mL (≈ 10.9 µM), the “MIC against Pseudomonas aeruginosa” value ([10]; strain # 58) was over 8 and the “MIC against Pseudomonas aeruginosa” value ([10]; strain # 59) was over 8. For the same compound, the “MIC against Pseudomonas aeruginosa” value ([10]; strain # 60) was over 8, the “MIC against Pseudomonas aeruginosa” value ([10]; strain # 61) was over 8 and the “MIC against Pseudomonas aeruginosa” value ([10]; strain # 62) was over 8. The “MIC against Pseudomonas aeruginosa” value ([10]; strain # 63) was over 8, the “MIC against Pseudomonas aeruginosa” value ([10]; strain # 64) was over 8 and the “MIC against Pseudomonas aeruginosa” value ([10]; strain # 65) was over 8. For the same compound, the “MIC against Pseudomonas aeruginosa” value ([10]; strain # 66) was over 8, the “MIC against Pseudomonas aeruginosa” value ([10]; strain # 67) was over 8 and the MIC ([11]; Proteus mirabilis, isolate # 52) was over 8 µg/mL. For the same compound, the “MIC against Proteus mirabilis” value ([11]; isolate # 48) was over 8 µg/mL, the “MIC against Proteus mirabilis” value ([11]; isolate # 49) was over 8 µg/mL and the “MIC against Proteus mirabilis” value ([11]; isolate # 50) was over 8 µg/mL. The “MIC against Proteus mirabilis” value ([11]; isolate # 51) was over 8 µg/mL, the “MIC against Proteus mirabilis” value ([11]; isolate # 53) was over 8 µg/mL and the “MIC against Proteus mirabilis” value ([11]; isolate # 54) was over 8 µg/mL. The “MIC against Proteus mirabilis” value ([11]; isolate # 55) was over 8 µg/mL, the “MIC against Proteus mirabilis” value ([11]; isolate # 56) was over 8 µg/mL and the “MIC against Proteus mirabilis” value ([11]; isolate # 57) was over 8 µg/mL. The MIC ([12]; isolate # 148) was 0.12 µg/mL (≈ 0.164 µM), the MIC ([12]; isolate # 149) was 0.12 µg/mL (≈ 0.164 µM) and the MIC ([12]; isolate # 150) was 0.25 µg/mL (≈ 0.341 µM). For the same compound, the MIC ([12]; isolate # 151) was 0.25 µg/mL (≈ 0.341 µM), the MIC ([12]; isolate # 152) was 0.25 µg/mL (≈ 0.341 µM) and the MIC ([12]; isolate # 153) was 0.5 µg/mL (≈ 0.681 µM). For the same compound, the MIC ([12]; isolate # 154) was 0.5 µg/mL (≈ 0.681 µM), the MIC ([12]; isolate # 155) was 0.25 µg/mL (≈ 0.341 µM) and the MIC ([12]; isolate # 156) was 0.25 µg/mL (≈ 0.341 µM). For the same compound, the MIC ([12]; isolate # 157) was 0.12 µg/mL (≈ 0.164 µM), the MIC ([13]; Enterobacter, isolate # 26 (mastitis)) was over 8 µg/mL and the “MIC against Enterobacter species” value ([13]; isolate # 21 (mastitis)) was over 8 µg/mL. For the same compound, the “MIC against Enterobacter species” value ([13]; isolate # 22 (mastitis)) was over 8 µg/mL, the “MIC against Enterobacter species” value ([13]; isolate # 23 (mastitis)) was over 8 µg/mL and the “MIC against Enterobacter species” value ([13]; isolate # 24 (mastitis)) was over 8 µg/mL. The “MIC against Enterobacter species” value ([13]; isolate # 25 (mastitis)) was over 8 µg/mL, the “MIC against Enterobacter species” value ([13]; isolate # 27 (mastitis)) was over 8 µg/mL and the “Known range (MIC)” value [14] was 0.25 to 1 µg/mL. For the same compound, the MIC [15] was 4 µg/mL (≈ 5.45 µM), the MIC ([15]; Mycoplasmopsis bovis, isolate # 248 (mastitis), read-out: MIC against Mycoplasma bovis) was over 8 µg/mL and the MIC ([15]; Mycoplasmopsis bovis, isolate # 249 (mastitis), read-out: MIC against Mycoplasma bovis) was over 8 µg/mL. It also gave an MIC ([15]; Mycoplasmopsis bovis, isolate # 250 (mastitis), read-out: MIC against Mycoplasma bovis) of over 8 µg/mL, an MIC ([15]; Mycoplasmopsis bovis, isolate # 251 (mastitis), read-out: MIC against Mycoplasma bovis) of over 8 µg/mL and an MIC ([15]; Mycoplasmopsis bovis, isolate # 252 (mastitis), read-out: MIC against Mycoplasma bovis) of over 8 µg/mL. It also gave an MIC ([15]; Mycoplasmopsis bovis, isolate # 253 (mastitis), read-out: MIC against Mycoplasma bovis) of 4 µg/mL (≈ 5.45 µM), an MIC ([15]; Mycoplasmopsis bovis, isolate # 254 (mastitis), read-out: MIC against Mycoplasma bovis) of over 8 µg/mL and an MIC ([15]; Mycoplasmopsis bovis, isolate # 255 (mastitis), read-out: MIC against Mycoplasma bovis) of over 8 µg/mL. The MIC ([15]; Mycoplasmopsis bovis, isolate # 256 (mastitis), read-out: MIC against Mycoplasma bovis) was over 8 µg/mL and the MIC ([15]; Mycoplasmopsis bovis, isolate # 257 (mastitis), read-out: MIC against Mycoplasma bovis) was over 8 µg/mL.
